This is an account of results in BindingDB's records for doi:10.1016/S0960-894X(00)80170-5 (1992).

pKd: −log10 of the molar value.

The target in experiment [1] is T1, 5-hydroxytryptamine receptor 3A/3B (Mus musculus, UniProt P23979+Q9JHJ5).
T1 sequence (P23979 whole entry): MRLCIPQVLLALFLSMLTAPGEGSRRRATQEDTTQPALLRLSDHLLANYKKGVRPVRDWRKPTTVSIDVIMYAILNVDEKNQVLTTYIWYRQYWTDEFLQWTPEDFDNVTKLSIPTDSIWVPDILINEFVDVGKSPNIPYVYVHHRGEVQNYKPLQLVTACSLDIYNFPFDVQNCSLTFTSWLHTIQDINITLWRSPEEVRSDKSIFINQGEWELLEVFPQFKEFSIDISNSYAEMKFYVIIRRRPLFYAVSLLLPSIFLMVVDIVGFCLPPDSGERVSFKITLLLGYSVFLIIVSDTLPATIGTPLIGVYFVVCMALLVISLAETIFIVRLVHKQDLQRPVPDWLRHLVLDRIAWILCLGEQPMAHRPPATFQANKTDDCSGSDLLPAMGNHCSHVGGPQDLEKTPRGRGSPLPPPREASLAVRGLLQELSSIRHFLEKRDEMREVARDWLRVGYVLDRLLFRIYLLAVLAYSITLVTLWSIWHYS
T1 sequence (Q9JHJ5 whole entry): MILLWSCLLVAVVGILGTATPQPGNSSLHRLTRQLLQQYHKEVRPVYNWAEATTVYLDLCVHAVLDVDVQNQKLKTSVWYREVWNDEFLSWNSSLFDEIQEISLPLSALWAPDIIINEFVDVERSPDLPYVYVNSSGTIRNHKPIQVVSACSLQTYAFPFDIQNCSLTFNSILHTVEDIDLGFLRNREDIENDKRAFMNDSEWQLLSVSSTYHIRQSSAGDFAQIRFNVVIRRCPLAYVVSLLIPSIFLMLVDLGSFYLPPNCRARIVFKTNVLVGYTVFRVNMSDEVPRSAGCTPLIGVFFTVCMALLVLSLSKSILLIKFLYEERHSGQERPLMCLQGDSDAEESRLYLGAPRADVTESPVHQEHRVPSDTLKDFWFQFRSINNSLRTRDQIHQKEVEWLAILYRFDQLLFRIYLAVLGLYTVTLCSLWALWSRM
As to the kind of experiment: Compound was evaluated for binding to 5-hydroxytryptamine 3 receptor in N1E cells using [3H]- -Tropisetron as radioligand.

In experiment [2] the target is T1, 5-hydroxytryptamine receptor 3A/3B. As to the kind of experiment: Compound was evaluated for binding to Serotonin 5-hydroxytryptamine 3 receptor in N1E cells using [3H]- -Tropisetron as radioligand.

Take `Cc1nccn1CC1CCc2c(c3ccccc3n2C)C1=O` (stereo not drawn) [NSC_68647]: the pKd (commonly the negative decadic logarithm of the Kd, by convention in mol/L) in experiment [1] was 7.70.
Compound `CN1C2CC(OC(=O)c3c[nH]c4ccccc34)CC1C1OC12` (stereo not drawn) gave a pKd in experiment [2] of 9.20.
Still for that read-out and setting: for `CN1[C@@H]2CC[C@H]1C[C@@H](OC(=O)c1c[nH]c3ccccc13)C2` [(3-ENDO)-8-METHYL-8-AZABICYCLO[3.2.1]OCT-3-YL 1H-INDOLE-3-CARBOXYLATE] the value was 9.10.
